Results on 52 compounds are retold here after US10155754B2, “Substituted 2-imino-1,3-thiazolidin-4-ones as N-arachidonoylethanolamine cellular uptake inhibitors” (UNIVERSITAT BERN, priority 2014, dated 2018).

One assay concerns AEA cellular uptake (U937 cells). Nature of the assay: [3H]-AEA cellular uptake inhibition in U937 cells. The assay is classed as cell-based. The settings on record: Homo sapiens, U-937, U937 cells, final 100 nM AEA with 0.5 nM [3H]-AEA, 15 min at 37° C.; read-out: AEA uptake IC50. As to the method:
[^3H]-AEA Cellular Uptake
Screening for AEA cellular uptake inhibition was performed in a semi-automated procedure: Pipetting and washing steps were performed by a Biomek3000 laboratory workstation. First, required amounts of U937 cells were centrifuged at 100×g for 5 min and resuspended in RPMI (37° C.) to a final concentration of 2×10^6 cells/mL. Then, 250 μL of cell suspension (0.5×10^6 cells per sample) were transferred into AquaSil™ silanized glass vials (Chromacol 1.1-MTV) in 96-well format. After addition of 5 μL vehicle (DMSO) or compounds the cells were incubated at 37° C. for 15 min. As positive controls OMDM-2 and UCM707 were used at 10 μM in each run. The ETI-T compounds were measured at up to 7 concentrations in triplicates from 100 pM-100 μM. After pre-incubation, a mixture of 0.5 nM [ethanolamine-1-^3H]-AEA, (60 Ci/mmol) and 99.5 nM of cold AEA (final 100 nM) was added and samples were incubated at 37° C. for another 15 min. The reaction was stopped by rapid filtration over UniFilter-96 GF/C filters (PerkinElmer) pre-soaked with PBS 0.25% BSA. Cells were washed three times with 100 μL ice-cold PBS buffer containing 1% fatty acid free BSA. After drying, 45 μL MicroScint 20 scintillation cocktail (PerkinElmer, Waltham, Mass., US) was added to the wells and the plate was sealed. Radioactivity was measured by liquid scintillation counting on a PerkinElmer Wallac Trilux MicroBeta 1450 during 2 min. Non-specific binding of [^3H]AEA (100 nM) to the glass vials was never higher than 10%. IC50 values were calculated by GraphPad® by non-linear regression using the built-in log(inhibitor) vs. response-variable slope (four parameters) function.
With `Cc1ccc(N2C(=O)/C(=C/c3ccc4[nH]ccc4c3)S/C2=N\c2ccc(F)cc2)cc1` [03_B_A, (2Z,5Z)-5-((1H-indol-5-yl)methylene)-2-(4-fluorophenylimino)-3-p-tolylthiazolidin-4-one], the IC50 (in general, the midpoint of a concentration-inhibition curve) is 0.76 µM.
Same read-out and setting: for `O=C1/C(=C/c2ccc3[nH]ccc3c2)S/C(=N\Cc2ccccc2)N1CCCc1ccccc1` [03_C_K, (2Z,5Z)-5-((1H-indol-5-yl)methylene)-2-(benzylimino)-3-(3-phenylpropyl)thiazolidin-4-one] the value was 0.564 µM; for `O=C1/C(=C/c2ccc3[nH]ccc3c2)S/C(=N\Cc2ccccc2)N1CCc1ccccc1` [03_C_O, (2Z,5Z)-5-((1H-indol-5-yl)methylene)-2-(benzylimino)-3-phenethylthiazolidin-4-one], 0.727 µM; for `COc1ccc(/N=C2\S/C(=C\c3ccc4[nH]ccc4c3)C(=O)N2c2ccccc2)cc1` [03_F_N, (2Z,5Z)-5-((1H-indol-5-yl)methylene)-2-(4-methoxyphenylimino)-3-phenylthiazolidin-4-one], 1.07 µM.
With `O=C1/C(=C/c2ccc3[nH]cnc3c2)S/C(=N\c2ccccc2)N1Cc1ccccc1` [03_N_C, (2Z,5Z)-5-((1H-benzo[d]imidazol-5-yl)methylene)-3-benzyl-2-(phenylimino)thiazolidin-4-one], the IC50 was 0.61 µM.
On the same count and under the same terms, for `O=C1/C(=C/c2ccc3[nH]ccc3c2)S/C(=N\c2ccccc2)N1CCCc1ccccc1` [03_N_K, (2Z,5Z)-5-((1H-indol-5-yl)methylene)-2-(phenylimino)-3-(3-phenylpropyl)thiazolidin-4-one] the value was 0.564 µM; for `O=C1/C(=C/c2ccc3[nH]ccc3c2)S/C(=N\c2ccccc2)N1Cc1ccco1` [03_N_M, (2Z,5Z)-5-((1H-indol-5-yl)methylene)-3-((furan-2-yl)methyl)-2-(phenylimino)thiazolidin-4-one], 0.879 µM; for `O=C1/C(=C/c2ccc3[nH]ccc3c2)S/C(=N\CCc2ccccc2)N1c1ccccc1` [03_U_N, (2Z,5Z)-5-((1H-indol-5-yl)methylene)-2-(phenethylimino)-3-phenylthiazolidin-4-one], 0.509 µM.
Regarding `CCCCCCCCCCCCN1C(=O)/C(=C/c2ccc(CO)cc2)S/C1=N\c1ccc(C)cc1` [04_A_V, (2Z,5Z)-5-(4-(hydroxymethyl)benzylidene)-2-(p-tolylimino)-3-dodecylthiazolidin-4-one], the IC50 was more than 10 µM.
As for `CC(C)CN1C(=O)/C(=C/c2ccc3[nH]cnc3c2)S/C1=N\c1ccc(F)cc1` [04_B_X, (2Z,5Z)-5-((1H-benzo[d]imidazol-5-yl)methylene)-2-(4-fluorophenylimino)-3-isobutylthiazolidin-4-one], the IC50 is 0.578 µM.
For `O=C1/C(=C/c2ccc3[nH]cnc3c2)S/C(=N\Cc2ccccc2)N1c1ccc(F)cc1` [04_C_B, (2Z,5Z)-5-((1H-benzo[d]imidazol-5-yl)methylene)-2-(benzylimino)-3-(4-fluorophenyl)thiazolidin-4-one], the IC50 turned out to be 0.861 µM.
For `CCCCN1C(=O)/C(=C/c2ccc3[nH]cnc3c2)S/C1=N\Cc1ccccc1` [04_C_G, (2Z,5Z)-5-((1H-benzo[d]imidazol-5-yl)methylene)-2-(benzylimino)-3-butylthiazolidin-4-one], the IC50 is 1.06 µM.
For the compound `O=C1/C(=C/c2ccc3[nH]cnc3c2)S/C(=N\Cc2ccccc2)N1CCCc1ccccc1` [04_C_K, (2Z,5Z)-5-((1H-benzo[d]imidazol-5-yl)methylene)-2-(benzylimino)-3-(3-phenylpropyl)thiazolidin-4-one], the IC50 was 1.14 µM.
As to `O=C1/C(=C/c2ccc3[nH]cnc3c2)S/C(=N\Cc2ccccc2)N1CCc1ccccc1` [04_C_O, (2Z,5Z)-5-((1H-benzo[d]imidazol-5-yl)methylene)-2-(benzylimino)-3-phenethylthiazolidin-4-one], the IC50 turned out to be 1.12 µM.
Same read-out and setting: the value for `Cc1ccc(/N=C2\S/C(=C\c3ccc4[nH]cnc4c3)C(=O)N2c2ccccc2)nc1` [04_D_N, (2Z,5Z)-5-((1H-benzo[d]imidazol-5-yl)methylene)-2-(5-methylpyridin-2-ylimino)-3-phenylthiazolidin-4-one] was 1.59 µM.
Consider `CCCCN1C(=O)/C(=C/c2ccc3[nH]cnc3c2)S/C1=N\c1ccccc1` [04_N_G, (2Z,5Z)-5-((1H-benzo[d]imidazol-5-yl)methylene)-3-butyl-2-(phenylimino)thiazolidin-4-one], for which the IC50 was 0.557 µM.

The assay is the same for the next values; noted with them: Homo sapiens, U-937, U937 cells, final 100 nM AEA with 0.5 nM [3H]-AEA, 15 min at 37° C.; read-out: AEA uptake inhibition IC50.
With `O=C1/C(=C/c2ccc3cc[nH]c3c2)S/C(=N\c2ccccc2)N1c1ccccc1`, the IC50 came to 2.3 µM.
Consider `O=C1/C(=C/c2ccc3nccnc3c2)S/C(=N\c2ccccc2)N1c1ccccc1`, for which the IC50 was 7.1 µM.
With `COc1ccc(/C=C2\S/C(=N\c3ccccc3)N(c3ccccc3)C2=O)cn1`, the IC50 turned out to be 15.6 µM.
With `COc1cncc(/C=C2\S/C(=N\c3ccccc3)N(c3ccccc3)C2=O)c1`, the IC50 stood at 6.7 µM.
On the same count and under the same terms, the value for `COc1ccc(/C=C2\S/C(=N\c3ccccc3)N(c3ccccc3)C2=O)nc1` was 6.6 µM; that for `COc1ccnc(/C=C2\S/C(=N\c3ccccc3)N(c3ccccc3)C2=O)c1` was 1.6 µM; that for `COc1cc(/C=C2\S/C(=N\c3ccccc3)N(c3ccccc3)C2=O)ccn1` was 5.5 µM.
Turning to `O=C1/C(=C/c2ccccc2)S/C(=N\c2ccccc2)N1c1ccccc1`, the IC50 came out at 2.78 µM.
On the same count and under the same terms, for `O=C1/C(=C/c2ccc3c(c2)OCO3)S/C(=N\c2ccccc2)N1c1ccccc1` the value was 3.36 µM.
With `COc1ccc(/C=C2\S/C(=N\c3ccccc3)N(c3ccccc3)C2=O)cc1`, the IC50 was 2.12 µM.
For `O=C1/C(=C/c2ccc3[nH]c(=O)oc3c2)S/C(=N\c2ccccc2)N1c1ccccc1`, the IC50 is 5.56 µM.
For `O=C1/C(=C/c2ccc3occc3c2)S/C(=N\c2ccccc2)N1c1ccccc1`, the IC50 was 3.26 µM.
The same measure, in the same setting: for `CSc1ccc(/C=C2\S/C(=N\c3ccccc3)N(c3ccccc3)C2=O)cc1` the value was 9.94 µM; for `O=C1/C(=C/c2ccc3sccc3c2)S/C(=N\c2ccccc2)N1c1ccccc1`, 4.63 µM.
Take `O=C1/C(=C/c2ccc3scnc3c2)S/C(=N\c2ccccc2)N1c1ccccc1`: the IC50 is 11.8 µM.
With `Cc1ccc(/N=C2\S/C(=C\c3ccccc3)C(=O)N2c2ccccc2)cc1`, the IC50 was determined as 3.24 µM.
On to `COc1ccc(/N=C2\S/C(=C\c3ccccc3)C(=O)N2c2ccccc2)cc1`, for which the IC50 amounted to 2.34 µM.
In the case of `COc1ccc(/C=C2\S/C(=N\c3ccc(C)cc3)N(c3ccccc3)C2=O)cc1`, the IC50 was 5.1 µM.
For `COc1ccc(/C=C2\S/C(=N\Cc3ccccc3)N(c3ccccc3)C2=O)cc1`, the IC50 worked out at 0.44 µM.
Same read-out and setting: for `COc1ccc(/C=C2\S/C(=N\c3ccc(C)cn3)N(c3ccccc3)C2=O)cc1` the value was 2.8 µM; for `C/N=C1\S/C(=C\c2ccc(OC)cc2)C(=O)N1c1ccccc1`, 6.92 µM; for `COc1ccc(/C=C2\S/C(=N\c3ccc(OC)cc3)N(c3ccccc3)C2=O)cc1`, 1.74 µM.
Still for that read-out and setting: the value for `O=C1/C(=C/c2ccc3[nH]cnc3c2)S/C(=N\Cc2ccccc2)N1c1ccccc1` was 2.14 µM.
The same measure, in the same setting: the value for `Cc1ccc(/N=C2\S/C(=C\c3ccc4[nH]ccc4c3)C(=O)N2c2ccccc2)nc1` was 2.73 µM; that for `C/N=C1\S/C(=C\c2ccc3[nH]ccc3c2)C(=O)N1c1ccccc1` was 16.6 µM; that for `O=C1/C(=C/c2ccc3[nH]ccc3c2)S/C(=N\c2ccccc2)N1Cc1ccccc1` was 0.61 µM.
Consider `CCCCN1C(=O)/C(=C/c2ccc3[nH]ccc3c2)S/C1=N\c1ccccc1`, for which the IC50 stood at 0.677 µM.
The same measure, in the same setting: the value for `O=C1/C(=C/c2ccc3[nH]cnc3c2)S/C(=N\c2ccccc2)N1Cc1ccco1` was 1.84 µM; that for `O=C1/C(=C/c2ccccc2)S/C(=N\c2ccccc2)N1Cc1ccccc1` was 5.42 µM.
In the case of `CCCCN1C(=O)/C(=C/c2ccccc2)S/C1=N\c1ccccc1`, the IC50 turned out to be 4.15 µM.
In the case of `O=C1/C(=C/c2ccccc2)S/C(=N\c2ccccc2)N1Cc1ccco1`, the IC50 was determined as 1.81 µM.
As to `COc1ccc(/C=C2\S/C(=N\c3ccccc3)N(Cc3ccccc3)C2=O)cc1`, the IC50 was determined as 2.29 µM.
On the same count and under the same terms, the value for `COc1ccc(/C=C2\S/C(=N\c3ccccc3)N(c3ccc(OC)cc3)C2=O)cc1` was 7.18 µM.
As for `CCCCN1C(=O)/C(=C/c2ccc(OC)cc2)S/C1=N\c1ccccc1`, the IC50 is 2.27 µM.
Still for that read-out and setting: the value for `COc1ccc(/C=C2\S/C(=N\c3ccccc3)N(Cc3ccco3)C2=O)cc1` was 3.18 µM.

The assay is the same for the next values; noted with them: U937 cells, final 100 nM AEA with 0.5 nM [3H]-AEA, 15 min at 37° C.; read-out: AEA uptake IC50.
Take `Cc1ccc(N2C(=O)/C(=C/c3ccc4[nH]cnc4c3)S/C2=N\c2ccc(F)cc2)cc1` [04_B_A, (2Z,5Z)-5-((1H-benzo[d]imidazol-5-yl)methylene)-2-(4-fluorophenylimino)-3-p-tolylthiazolidin-4-one]: the IC50 came out at 0.527 µM.
